# Structures can show the parent of a compound that is named as a salt.
# Key:
# [1] = tested on: BaF3-PIM1 cells; assay: In vitro cell proliferation assay (CellTiter-Glo), BaF3-PIM1; assay type: cell-based; conditions: 72 hours
# [2] = tested on: MV-4-11 cells; assay: In vitro cell proliferation assay (CellTiter-Glo), MV-4-11; assay type: cell-based; conditions: Homo sapiens, MV4-11, 72 hours
# Experimental: In Vitro Cell Proliferation Assay
# MV-4-11 (biphenotypic B myelomonocytic leukemia) cell line was obtained from ATCC.
# Media for MV-4-11 cell line contained RPMI 1640 or EMEM plus 2 mM Glutamine and 10% Fetal bovine serum.
# BaF3-PIM1 and MV-4-11 cells were seeded at 125 cells/well and 1250 cells/well respectively in a 384-well white plates in complete medium and treated with compounds dissolved in 0.1% DMSO, 24 h after seeding.
# The cells were incubated at 37° C. and 5% CO2 and after 72 hours the plates were processed using CellTiter-Glo assay (Promega) following the manufacturer's instruction.
# CellTiter-Glo was a homogenous method based on the quantification of the ATP present, an indicator of metabolitically active cells. ATP was quantified using a system based on luciferase and D-luciferin resulting into light generation. The luminescent signal was proportional to the number of cells present in culture.
# Briefly 25 μl/well reagent solution were added to each wells and after 5 minutes shacking microplates were red by Envision (PerkinElmer) luminometer. The luminescent signal was proportional to the number of cells present in culture.
# Inhibitory activity was evaluated comparing treated versus control data using Assay Explorer (MDL) program. IC50 was calculated using sigmoidal interpolation curve.
# [3] = target: human PIM2 (Homo sapiens (Human), UniProt Q9P1W9); assay: PIM2 kinase inhibition assay: Dowex technique; assay type: biochemical; conditions: ATP 4 μM, Aktide 5 μM, enzyme 1.5 nM; read-out: PIM-2 IC50
# Method in brief: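 Radiometric Dowex read-out, run as for PIM1, with 50 mM HEPES pH 7.5, 1 mM MgCl2, 1 mM DTT, 3 μM Na3VO4 and 0.2 mg/mL BSA. Final conditions: 5 μM Aktide substrate, 4 μM ATP spiked with 1 nM 33P-γ-ATP, 1.5 nM full-length human enzyme.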
# [4] = target: human PIM1 (Homo sapiens (Human), UniProt P11309); assay: Biochemical assay for inhibitors of PIM1 kinase activity (trans-phosphorylation, Dowex technique); conditions: ATP 200 μM, Aktide 25 μM, enzyme 1 nM; read-out: PIM-1 IC50
# Method in brief: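 Full-length human PIM1 (1 nM) phosphorylates Aktide (25 μM) with 200 μM ATP plus 6 nM ^33P-γ-ATP in HEPES 50 mM pH 7.5, 10 mM MgCl2, 1 mM DTT, 3 μM NaVO3, 0.2 mg/mL BSA. Unreacted ATP captured on Dowex resin, supernatant β-counted; IC50 from ten-point 1:3 dilution sigmoidal fit.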
# Sequence of human PIM2 (Q9P1W9 whole entry): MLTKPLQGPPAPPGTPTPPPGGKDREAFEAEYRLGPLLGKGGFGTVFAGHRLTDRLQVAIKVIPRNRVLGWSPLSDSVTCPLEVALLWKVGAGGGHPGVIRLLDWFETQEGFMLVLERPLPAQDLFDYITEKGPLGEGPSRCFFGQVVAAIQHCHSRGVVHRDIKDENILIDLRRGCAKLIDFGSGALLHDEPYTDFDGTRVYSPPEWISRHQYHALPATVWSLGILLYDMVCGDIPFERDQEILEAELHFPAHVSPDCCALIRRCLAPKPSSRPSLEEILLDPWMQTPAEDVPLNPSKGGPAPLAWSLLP
# Sequence of human PIM1 (P11309 whole entry): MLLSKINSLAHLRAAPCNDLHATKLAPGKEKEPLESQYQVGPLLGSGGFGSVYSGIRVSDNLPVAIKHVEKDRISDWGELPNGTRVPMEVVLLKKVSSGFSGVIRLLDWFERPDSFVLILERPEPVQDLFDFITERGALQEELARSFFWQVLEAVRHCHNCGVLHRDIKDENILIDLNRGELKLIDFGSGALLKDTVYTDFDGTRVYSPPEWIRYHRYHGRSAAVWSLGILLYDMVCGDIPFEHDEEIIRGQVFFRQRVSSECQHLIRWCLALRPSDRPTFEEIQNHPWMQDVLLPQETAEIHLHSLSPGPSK
SMILES,IC50 [1] [nM],IC50 [2] [nM],IC50 [3] [nM],IC50 [4] [nM]
"CS(=O)(=O)NCC[C@H]1CNC(=O)c2cc(-c3cccc(OC(F)(F)F)c3)c(-c3ccccc3)n21 [Compound 147, N-(2-{(4S)-1-oxo-6-phenyl-7-[3-(trifluoromethoxy)phenyl]-1,2,3,4-tetrahydropyrrolo[1,2-a]pyrazin-4-yl}ethyl)methanesulfonamide]",638,3620,172,26
"CN(C)Cc1ccc(-c2c(-c3cccc(OC(F)(F)F)c3)cc3n2[C@@H](CCCN)CNC3=O)cc1 [Compound 134, (4S)-4-(3-aminopropyl)-6-{4-[(dimethylamino)methyl]phenyl}-7-[3-(trifluoromethoxy)phenyl]-3,4-dihydropyrrolo[1,2-a]pyrazin-1(2H)-one dihydrochloride]",4320,7060,66,2
"NCC[C@H]1CNC(=O)c2cc(-c3cccc(OC(F)(F)F)c3)c(-c3ccc(F)cc3)n21 [Compound 94, (4S)-4-(2-aminoethyl)-6-(4-fluorophenyl)-7-[3-(trifluoromethoxy)phenyl]-3,4-dihydropyrrolo[1,2-a]pyrazin-1(2H)-one hydrochloride]",428,5420,27,20
"CC(=O)c1ccc(-c2c(-c3cccc(OC(F)(F)F)c3)cc3n2[C@@H](CCN)CNC3=O)cc1 [Compound 95, (4S)-6-(4-acetylphenyl)-4-(2-aminoethyl)-7-[3-(trifluoromethoxy)phenyl]-3,4-dihydropyrrolo[1,2-a]pyrazin-1(2H)-one hydrochloride]",573,1260,17,6
"NCCC1CNC(=O)c2cc(-c3cccc(C(F)(F)F)c3)c(-c3ccsc3)n21 (stereo not shown) [Compound 40, 4-(2-aminoethyl)-6-(thiophen-3-yl)-7-[3-(trifluoromethyl)phenyl]-3,4-dihydropyrrolo[1,2-a]pyrazin-1(2H)-one hydrochloride]",340,5040,155,43
"NCC[C@H]1CNC(=O)c2cc(-c3cccc(OC(F)(F)F)c3)c(-c3ccc(C=O)cc3)n21 [Compound 97, 4-{(4S)-4-(2-aminoethyl)-1-oxo-7-[3-(trifluoromethoxy)phenyl]-1,2,3,4-tetrahydropyrrolo[1,2-a]pyrazin-6-yl}benzaldehyde hydrochloride]",1500,2100,22,7

# Compounds with a lower IC50 [1], results first:
IC50 [1] [nM],IC50 [2] [nM],IC50 [3] [nM],IC50 [4] [nM],SMILES
329,2890,38,4,"CN(C)Cc1ccc(-c2c(-c3cccc(OC(F)(F)F)c3)cc3n2C(CCO)CNC3=O)cc1 (stereo not shown) [Compound 83, 6-{4-[(dimethylamino)methyl]phenyl}-4-(2-hydroxyethyl)-7-[3-(trifluoromethoxy)phenyl]-3,4-dihydropyrrolo[1,2-a]pyrazin-1(2H)-one trifluoroacetate]"
315,2620,143,19,"NCCC1CNC(=O)c2cc(-c3cccc(OC(F)(F)F)c3)c(-c3ccsc3)n21 (stereo not shown) [Compound 29, 4-(2-aminoethyl)-6-(thiophen-3-yl)-7-[3-(trifluoromethoxy)phenyl]-3,4-dihydropyrrolo[1,2-a]pyrazin-1(2H)-one hydrochloride]"
296,939,9,1,"CN(C)Cc1ccc(-c2c(-c3cccc(OC(F)(F)F)c3)cc3n2[C@@H](CCN)CNC3=O)cc1 [Compound 101, (4S)-4-(2-aminoethyl)-6-{4-[(dimethylamino)methyl]phenyl}-7-[3-(trifluoromethoxy)phenyl]-3,4-dihydropyrrolo[1,2-a]pyrazin-1(2H)-one hydrochloride]"
273,3140,44,14,"CN1CCN(Cc2ccc(-c3c(-c4cccc(OC(F)(F)F)c4)cc4n3C(CCCl)CNC4=O)cc2)CC1 (stereo not shown) [Compound 71, 4-(2-chloroethyl)-6-{4-[(4-methylpiperazin-1-yl)methyl]phenyl}-7-[3-(trifluoromethoxy)phenyl]-3,4-dihydropyrrolo[1,2-a]pyrazin-1(2H)-one trifluoroacetate]"
142,861,22,3,"COc1ccc(-c2c(-c3cccc(OC(F)(F)F)c3)cc3n2[C@@H](CCN)CNC3=O)cc1 [Compound 116, (4S)-4-(2-aminoethyl)-6-(4-methoxyphenyl)-7-[3-(trifluoromethoxy)phenyl]-3,4-dihydropyrrolo[1,2-a]pyrazin-1(2H)-one hydrochloride]"
85,3660,69,12,"NCC[C@H]1CNC(=O)c2cc(-c3cccc(OC(F)(F)F)c3)c(-c3ccsc3)n21 [Compound 85, (4S)-4-(2-aminoethyl)-6-(thiophen-3-yl)-7-[3-(trifluoromethoxy)phenyl]-3,4-dihydropyrrolo[1,2-a]pyrazin-1(2H)-one hydrochloride]"
71,1770,16,6,"NCC[C@H]1CNC(=O)c2cc(-c3cccc(OC(F)(F)F)c3)c(-c3ccc4c(c3)OCO4)n21 [Compound 112, (4S)-4-(2-aminoethyl)-6-(1,3-benzodioxol-5-yl)-7-[3-(trifluoromethoxy)phenyl]-3,4-dihydropyrrolo[1,2-a]pyrazin-1(2H)-one hydrochloride]"

# — US9181258B2, “Substituted 3,4-dihydropyrrolo[1,2-a]pyrazin-1(2H)-ones as protein kinase inhibitors” (NERVIANO MEDICAL SCIENCES S.R.L., priority 2011, dated 2015)
